# Test results as given in patent US12692238B2, “Substituted pyridazinone herbicides” (FMC CORPORATION, priority 2020, dated 2026).
# Key:
# Type in all cases: in vivo
# [1] = tested on: wheat (Triticum aestivum); assay: Test A postemergence, wheat; settings: 10 days
# Method in brief: (§1)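 Scores reflect visual injury versus untreated controls after 10 days in a greenhouse, on a scale from 0 (none) to 100 (complete control); pre- and postemergence sprays used loam/sand pots, postemergence at the one- to two-leaf stage.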
# [2] = tested on: goosegrass (Eleusine indica); assay: Test A postemergence, goosegrass; settings: 10 days
# Text: (§2) Seeds of plant species selected from barnyardgrass (Echinochloa crus-galli), blackgrass (Alopecurus myosuroides), corn (Zea mays), foxtail, giant (giant foxtail, Setaria faberi), foxtail, green (green foxtail, Setaria viridis), goosegrass (Eleusine indica), kochia (Bassia scoparia), oat, wild (wild oat, Avena fatua), palmer amaranth (pigweed, palmer, Amaranthus palmeri), redroot pigweed (Amaranthus retroflexus), ragweed (common ragweed, Ambrosia artemisiifolia), ryegrass, Italian (Italian ryegrass, Lolium multiflorum), and soybean (Glycine max) were planted into a blend of loam soil and sand and treated preemergence with a directed soil spray using test chemicals formulated in a non-phytotoxic solvent mixture which included a surfactant.
# (§3) At the same time, plants selected from these crop and weed species and also wheat (Triticum aestivum), galium (catchweed bedstraw, Galium aparine) and horseweed (Erigeron canadensis) were planted in pots containing the same blend of loam soil and sand and treated with postemergence applications of test chemicals formulated in the same manner. Plants ranged in height from 2 to 10 cm and were in the one- to two-leaf stage for the postemergence treatment. Treated plants and untreated controls were maintained in a greenhouse for 10 days, after which time all treated plants were compared to untreated controls and visually evaluated for injury. Plant response ratings, summarized in Table A, are based on a 0 to 100 scale where 0 is no effect and 100 is complete control. A dash (-) response means no test result.
# corn (Zea mays) [3] = assay: Test A postemergence, corn; settings: 10 days
# Method in brief: as §1
# [4] = tested on: palmer amaranth (pigweed, palmer, Amaranthus palmeri); assay: Test A preemergence, palmer amaranth; settings: 0 to 100 scale, 10 days
# Text: as §2, §3
# [5] = tested on: ducksalad (Heteranthera limosa); assay: Test B flooded paddy test, ducksalad; settings: 250 g ai/ha, Flood; visually evaluated after 10 to 14 days
# Method in brief: (§4)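 Greenhouse paddy assay in which test compounds were dosed into floodwater standing 3 cm above the soil. Plants were at the 2-leaf stage, the water level was kept constant, and effects were rated visually 10–14 days later on a 0–100 scale relative to controls.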
# [6] = tested on: blackgrass (Alopecurus myosuroides); assay: Test A preemergence, blackgrass; settings: 0 to 100 scale, 10 days
# Text: as §2, §3
# [7] = tested on: oat, wild (wild oat, Avena fatua); assay: Test A preemergence, oat, wild; settings: 0 to 100 scale, 10 days
# Text: as §2, §3
# [8] = tested on: galium (catchweed bedstraw, Galium aparine); assay: Test A postemergence, galium; settings: 10 days
# Method in brief: as §1
# soybean (Glycine max) [9] = assay: Test A preemergence, soybean; settings: 0 to 100 scale, 10 days
# Text: as §2, §3
# [10] = tested on: foxtail, giant (giant foxtail, Setaria faberi); assay: Test A preemergence, foxtail, giant; settings: 0 to 100 scale, 10 days
# Method in brief: as §1
# soybean (Glycine max) [11] = assay: Test A postemergence, soybean; settings: 10 days
# Text: as §2, §3
# [12] = tested on: horseweed (Erigeron canadensis); assay: Test A postemergence, horseweed; settings: 10 days
# Text: as §2, §3
# [13] = tested on: ryegrass, Italian (Italian ryegrass, Lolium multiflorum); assay: Test A postemergence, ryegrass, Italian; settings: 10 days
# Method in brief: as §1
# [14] = tested on: goosegrass (Eleusine indica); assay: Test A preemergence, goosegrass; settings: 0 to 100 scale, 10 days
# Text: as §2, §3
# kochia (Bassia scoparia) [15] = assay: Test A postemergence, kochia; settings: 10 days
# Method in brief: as §1
# [16] = tested on: sedge, umbrella (small-flower umbrella sedge, Cyperus difformis); assay: Test B flooded paddy test, sedge, umbrella; settings: 250 g ai/ha, Flood; visually evaluated after 10 to 14 days
# Method in brief: as §4
# [17] = tested on: ryegrass, Italian (Italian ryegrass, Lolium multiflorum); assay: Test A preemergence, ryegrass, Italian; settings: 0 to 100 scale, 10 days
# Method in brief: as §1
# [18] = tested on: foxtail, giant (giant foxtail, Setaria faberi); assay: Test A postemergence, foxtail, giant; settings: 10 days
# Method in brief: as §1
# [19] = tested on: wheat (Triticum aestivum); assay: Test A preemergence, wheat; settings: 125 g ai/ha, 0 to 100 scale, 10 days
# rice (Oryza sativa) = assay: Test B flooded paddy test, rice; settings: 250 g ai/ha, Flood; visually evaluated after 10 to 14 days
# Method in brief: as §4
# corn (Zea mays) [20] = assay: Test A preemergence, corn; settings: 0 to 100 scale, 10 days
# Text: as §2, §3
# [21] = tested on: ragweed (common ragweed, Ambrosia artemisiifolia); assay: Test A postemergence, ragweed; settings: 10 days
# Method in brief: as §1
# [22] = tested on: palmer amaranth (pigweed, palmer, Amaranthus palmeri); assay: Test A postemergence, palmer amaranth; settings: 10 days
# Text: as §2, §3
# [23] = tested on: ragweed (common ragweed, Ambrosia artemisiifolia); assay: Test A preemergence, ragweed; settings: 0 to 100 scale, 10 days
# Method in brief: as §1
# [24] = tested on: oat, wild (wild oat, Avena fatua); assay: Test A postemergence, oat, wild; settings: 10 days
# Text: as §2, §3
# kochia (Bassia scoparia) [25] = assay: Test A preemergence, kochia; settings: 0 to 100 scale, 10 days
# Method in brief: as §1
# [26] = tested on: blackgrass (Alopecurus myosuroides); assay: Test A postemergence, blackgrass; settings: 10 days
# Method in brief: as §1
# [27] = tested on: barnyardgrass (Echinochloa crus-galli); assay: Test B flooded paddy test, barnyardgrass; settings: 250 g ai/ha, Flood; visually evaluated after 10 to 14 days
# Method in brief: as §4
# [28] = 31 g ai/ha, postemergence, 0 to 100 scale (0 no effect, 100 complete control)
# [29] = Postemergence, 125 g ai/ha, 0 to 100 scale
smiles,measurement,setting,value
Cc1cc(C)c2cc3ccccc3c(-c3c(OCOC(=O)C(C)(C)C)c(Cl)nn(C)c3=O)c2c1 [Compound 20],"Plant response rating, Wheat",[1]; [28],0
same,"Plant response rating, Wheat",[1]; [29],0
same,"Plant response rating, Goosegrass",[2]; [28],30
same,"Plant response rating, Goosegrass",[2]; [29],30
same,"Plant response rating, Corn",corn (Zea mays) [3]; [28],10
same,"Plant response rating, Corn",corn (Zea mays) [3]; [29],20
same,"Plant response rating, Pigweed, Palmer",[4]; 31 g ai/ha,30
same,"Plant response rating, Pigweed, Palmer",[4]; 125 g ai/ha,60
same,"Plant response rating, Ducksalad (0 to 100 scale where 0 is no effect and 100 is complete control)",[5],100
same,"Plant response rating, Blackgrass",[6]; 31 g ai/ha,0
same,"Plant response rating, Blackgrass",[6]; 125 g ai/ha,10
same,"Plant response rating, Oat, Wild",[7]; 31 g ai/ha,0
same,"Plant response rating, Oat, Wild",[7]; 125 g ai/ha,0
same,"Plant response rating, Galium",[8]; [28],50
same,"Plant response rating, Galium",[8]; [29],50
same,"Plant response rating, Soybean",soybean (Glycine max) [9]; 31 g ai/ha,0
same,"Plant response rating, Soybean",soybean (Glycine max) [9]; 125 g ai/ha,0
same,"Plant response rating, Foxtail, Giant",[10]; 31 g ai/ha,0
same,"Plant response rating, Foxtail, Giant",[10]; 125 g ai/ha,20
same,"Plant response rating, Soybean",soybean (Glycine max) [11]; [28],0
same,"Plant response rating, Soybean",soybean (Glycine max) [11]; [29],0
same,"Plant response rating, Horseweed",[12]; [28],90
same,"Plant response rating, Horseweed",[12]; [29],80
same,"Plant response rating, Ryegrass, Italian",[13]; [28],0
same,"Plant response rating, Ryegrass, Italian",[13]; [29],0
same,"Plant response rating, Goosegrass",[14]; 31 g ai/ha,0
same,"Plant response rating, Goosegrass",[14]; 125 g ai/ha,0
same,"Plant response rating, Kochia",kochia (Bassia scoparia) [15]; [28],40
same,"Plant response rating, Kochia",kochia (Bassia scoparia) [15]; [29],60
same,"Plant response rating, Sedge, Umbrella (0 to 100 scale where 0 is no effect and 100 is complete control)",[16],90
same,"Plant response rating, Ryegrass, Italian",[17]; 31 g ai/ha,0
same,"Plant response rating, Ryegrass, Italian",[17]; 125 g ai/ha,0
same,"Plant response rating, Foxtail, Giant",[18]; [28],20
same,"Plant response rating, Foxtail, Giant",[18]; [29],30
same,"Plant response rating, Wheat",[19],0
same,"Plant response rating, Rice (0 to 100 scale where 0 is no effect and 100 is complete control)",rice (Oryza sativa),0
same,"Plant response rating, Corn",corn (Zea mays) [20]; 31 g ai/ha,0
same,"Plant response rating, Corn",corn (Zea mays) [20]; 125 g ai/ha,0
same,"Plant response rating, Ragweed",[21]; [28],70
same,"Plant response rating, Ragweed",[21]; [29],70
same,"Plant response rating, Pigweed, Palmer",[22]; [28],50
same,"Plant response rating, Pigweed, Palmer",[22]; [29],50
same,"Plant response rating, Ragweed",[23]; 31 g ai/ha,0
same,"Plant response rating, Ragweed",[23]; 125 g ai/ha,50
same,"Plant response rating, Oat, Wild",[24]; [28],0
same,"Plant response rating, Oat, Wild",[24]; [29],0
same,"Plant response rating, Kochia",kochia (Bassia scoparia) [25]; 31 g ai/ha,0
same,"Plant response rating, Kochia",kochia (Bassia scoparia) [25]; 125 g ai/ha,0
same,"Plant response rating, Blackgrass",[26]; [28],0
same,"Plant response rating, Blackgrass",[26]; [29],0
same,"Plant response rating, Barnyardgrass (0 to 100 scale where 0 is no effect and 100 is complete control)",[27],25
Cc1ccc2cc3ccc(F)cc3c(-c3c(OCOC(=O)C(C)(C)C)c(C)nn(C)c3=O)c2c1 [Compound 21],"Plant response rating, Wheat",[1]; [28],0
same,"Plant response rating, Wheat",[1]; [29],0
same,"Plant response rating, Goosegrass",[2]; [28],20
same,"Plant response rating, Goosegrass",[2]; [29],30
same,"Plant response rating, Corn",corn (Zea mays) [3]; [28],30
same,"Plant response rating, Corn",corn (Zea mays) [3]; [29],40
same,"Plant response rating, Pigweed, Palmer",[4]; 31 g ai/ha,100
same,"Plant response rating, Pigweed, Palmer",[4]; 125 g ai/ha,100
same,"Plant response rating, Ducksalad (0 to 100 scale where 0 is no effect and 100 is complete control)",[5],100
same,"Plant response rating, Blackgrass",[6]; 31 g ai/ha,0
same,"Plant response rating, Blackgrass",[6]; 125 g ai/ha,40
same,"Plant response rating, Oat, Wild",[7]; 31 g ai/ha,0
same,"Plant response rating, Oat, Wild",[7]; 125 g ai/ha,40
same,"Plant response rating, Galium",[8]; [28],100
same,"Plant response rating, Galium",[8]; [29],100
same,"Plant response rating, Soybean",soybean (Glycine max) [9]; 31 g ai/ha,0
same,"Plant response rating, Soybean",soybean (Glycine max) [9]; 125 g ai/ha,0
same,"Plant response rating, Foxtail, Giant",[10]; 31 g ai/ha,80
same,"Plant response rating, Foxtail, Giant",[10]; 125 g ai/ha,100
same,"Plant response rating, Soybean",soybean (Glycine max) [11]; [28],100
same,"Plant response rating, Soybean",soybean (Glycine max) [11]; [29],100
same,"Plant response rating, Horseweed",[12]; [28],100
same,"Plant response rating, Horseweed",[12]; [29],100
same,"Plant response rating, Ryegrass, Italian",[13]; [28],80
same,"Plant response rating, Ryegrass, Italian",[13]; [29],100
same,"Plant response rating, Goosegrass",[14]; 31 g ai/ha,40
same,"Plant response rating, Goosegrass",[14]; 125 g ai/ha,60
same,"Plant response rating, Kochia",kochia (Bassia scoparia) [15]; [28],90
same,"Plant response rating, Kochia",kochia (Bassia scoparia) [15]; [29],100
same,"Plant response rating, Sedge, Umbrella (0 to 100 scale where 0 is no effect and 100 is complete control)",[16],100
same,"Plant response rating, Ryegrass, Italian",[17]; 31 g ai/ha,40
same,"Plant response rating, Ryegrass, Italian",[17]; 125 g ai/ha,90
same,"Plant response rating, Foxtail, Giant",[18]; [28],90
same,"Plant response rating, Foxtail, Giant",[18]; [29],100
same,"Plant response rating, Wheat",[19],0
same,"Plant response rating, Rice (0 to 100 scale where 0 is no effect and 100 is complete control)",rice (Oryza sativa),60
same,"Plant response rating, Corn",corn (Zea mays) [20]; 31 g ai/ha,0
same,"Plant response rating, Corn",corn (Zea mays) [20]; 125 g ai/ha,0
same,"Plant response rating, Ragweed",[21]; [28],100
same,"Plant response rating, Ragweed",[21]; [29],100
same,"Plant response rating, Pigweed, Palmer",[22]; [28],100
same,"Plant response rating, Pigweed, Palmer",[22]; [29],100
same,"Plant response rating, Ragweed",[23]; 31 g ai/ha,50
same,"Plant response rating, Ragweed",[23]; 125 g ai/ha,90
same,"Plant response rating, Oat, Wild",[24]; [28],10
same,"Plant response rating, Oat, Wild",[24]; [29],40
same,"Plant response rating, Kochia",kochia (Bassia scoparia) [25]; 31 g ai/ha,100
same,"Plant response rating, Kochia",kochia (Bassia scoparia) [25]; 125 g ai/ha,100
same,"Plant response rating, Blackgrass",[26]; [28],20
same,"Plant response rating, Blackgrass",[26]; [29],20
same,"Plant response rating, Barnyardgrass (0 to 100 scale where 0 is no effect and 100 is complete control)",[27],98
